According to patent publication US8680094B2, “1, 4-benzoxazine compounds and derivatives thereof as therapeutic drugs for the treatment of neurodegenerative conditions” (Board of Regents, The University of Texas System, priority 2008, dated 2014):

How the values were obtained:
Assay type in all cases: cell-based, rat
[1] = system: cerebellar granule neurons; test: Effect of inhibition of signal transduction pathways on neuroprotection by 1,4-benzoxazines in LK-treated cerebellar granule neurons; conditions: LK medium, 24 h; for effect of pharmacological inhibition of the MEK-ERK and PI-3K-Akt pathways on neuroprotective action: PD98059 40 μM, U0126 10 μM, Wortmannin 100 nm, Akt inhibitor-X 5 μM, DAPI
Experimental: Cultures of cerebellar granule neurons were switched to LK medium, LK medium containing of HSB-13, or LK medium containing HSB-13 and either PD98059 (40 μM), U0126 (10 μM), Wortmannin ([…]), Akt inhibitor-X (5 μM), KN-62 (10 μM), H89 (10 μM) and TSA (1 μM). Viability was quantified 24 h later by DAPI staining. The results were normalized to viability in control cultures which were switched to HK medium;
The Raf-MEK-ERK and P1-3 kinase-Akt signaling are two well-established and powerful anti-apoptotic pathways in mammalian cells that mediate the protective effects of a number of neurotrophic polypeptides, pharmacological agents, and neuroprotective compounds (D'Mello and Chin, 2005; Hetman et al., 2006). To determine whether either of these pathways was involved in the neuroprotective effect of 1,4-benzoxazines the inventors studied whether the pharmacological inhibition of these pathways affected their neuroprotective efficacy. […] Similarly, none of the compounds tested (the PI-3 kinase inhibitor, wortmannin, the Akt inhibitor X, or a commercially available inhibitor of Akt) reduced the ability of HSB-13 to protect neurons against LK-induced apoptosis (FIG. 3). […] As observed for HSB-13, pharmacological inhibition of the MEK-ERK and PI-3K-Akt pathways had no effect on the neuroprotective actions of ASK-2a or HSB-22.
Treatment of cerebellar granule neurons with HK activates calcium-calmodulin kinase (CaMK) and inhibition of CaMK with pharmacological inhibitors such as KN-62 inhibits HK-mediated survival (See et al., 2001; Linseman et al., 2003; Morrison et al., 2006). […] The present inventors recognized that several investigators have shown that cyclic AMP analogs and pharmacological activators of protein kinase A promote survival of cerebellar granule neurons as well as other neuronal types in the absence of other survival-promoting stimuli (Rydel and Greene, 1988; D'Mello et al., 1993; Hanson et al., 1998). PKA-mediated neuronal survival is blocked by treatment with H89, a potent and selective PICA inhibitor (Li et al., 2000; Bhave and Hoffman, 2004). […] The inventors have previously reported that histone deacetylase inhibitors such as trichostatin A block the ability of HK to maintain the survival of cerebellar granule neurons (Salminen et al., 1998; Boutillier et al., 2002; Morrison et al., 2006).

phospho-Akt (Ser473) = test: Western blot of signaling proteins in LK-treated cerebellar granule neurons: phospho-Akt (Ser473); conditions: LK medium with compound
Experimental: (§1) Cultures of cerebellar granule neurons were switched to HK medium, LK medium, or LK medium containing of HSB-13, HSB-22, or ASK-2a for 3 h. Total cell lysates were prepared and analyzed by Western blotting using antibodies against phospho-Akt (Ser473), phospho-MEK, phospho-ERK, and phospho-GSK3β.
(§2) The culture medium was removed and the cells were washed twice with ice-cold phosphate-buffered saline (PBS) and lysed in lysis buffer [1% Triton, 20 mM Tris-HCl (pH 7.5), 150 mM NaCl, 1 mM Na2EDTA, 1 mM EGTA, 2.5 mM sodium pyrophosphate, 1 mM beta-glycerophosphate, 1 mM Na3VO4, 1 μg/mL leupeptin and 1 protease inhibitor mixture]. Protein concentrations were measured and normalized using Bradford protein assay reagent (Bio-Rad, Hercules, Calif., USA). Following normalization, 40 μg of protein was subjected to Western blotting. Immunoreactivity was examined by enhanced chemiluminescence (Amersham Bioscience, Piscataway, N.J., USA).
(§3) Activation of MEK, ERK and Akt requires their phosphorylation, which can be detected using phospho-specific antibodies. As previously reported by the inventors and others (Chin et al., 2004; Johnson et al., 2005; Majdzadeh et al., 2008), MEK and ERK phosphorylation decreases following LK treatment of cerebellar granule neurons. This decrease is not prevented by HSB-13, HSB-22, or ASK-2a (FIG. 4). […] This is also not affected by treatment with ASK-2a or HSB-22 (FIG. 4).

c-jun = test: Western blot of c-jun expression in LK-treated cerebellar granule neurons; conditions: 25 μM, 3 h
Experimental: Cerebellar neuron cultures were treated for 3 h with HK, LK, or LK medium containing 25 μM HSB-13, 25 μM ASK-2a, or 25 μM HSB-22. Whole cell lysates were then prepared and subjected to Western blot analysis using antibodies against c-jun and ATF-3.
as §2
C-jun expression is induced in a variety of tissue culture and in vivo paradigms of neuronal apoptosis (Schenkel et al., 2004). […] Treatment with HSB-13 inhibited c-jun expression even lower that that seen in HK-treated cultures. […] The suppression of ATF-3 expression using siRNA inhibits LK-mediated death of cerebellar granule neurons has been previously been described by the present inventors (Chen et al., 2008a). […] As observed with c-jun, the suppression was most robust with HSB-13. As a result these compositions can inhibit the activity of c-jun and ATF-3, which in turn play a role in treating cancer and oncoproteins like c-jun.

phospho-ERK = test: Western blot of signaling proteins in LK-treated cerebellar granule neurons: phospho-ERK; conditions: LK medium with compound, 3 h
Experimental: as §1, §2, §3

SMILES	effect of pharmacological inhibition of the MEK-ERK and PI-3K-Akt pathways on neuroprotective action [1]	phosphorylation of Akt at Ser473 in LK (phospho-Akt (Ser473))	induction of c-jun expression by LK (c-jun)	LK-induced decrease of ERK phosphorylation (phospho-ERK)	neuroprotection in the presence of H89 ([1]; H89 10 μM (PKA inhibitor))	neuroprotection in the presence of KN-62 ([1]; KN-62 10 μM (CaMK inhibitor))	neuroprotection in the presence of TSA ([1]; TSA 1 μM (histone deacetylase inhibitor))
O=C1Nc2cc(Cl)ccc2O/C1=C\c1cc(Br)c(O)c(Br)c1 [HSB-22]	no effect	not affected	inhibited	not prevented			
O=C1Nc2ccccc2OC1=Cc1cc(Br)c(O)c(Br)c1 [ASK-2a]	no effect	not affected	inhibited	not prevented			
Nc1ccc2c(c1)NC(=O)/C(=C/c1cc(Br)c(O)c(Br)c1)O2 [HSB-13, (Z)-6-amino-2-(3,′5′-dibromo-4′-hydrozybenzylidene)-2H-benzo[b][1,4]oxazin-3(4H)-one]	no effect	inhibits Akt (Ser473) phosphorylation even more than that seen in LK	inhibited	not prevented	no effect	not, however, reduced	did not inhibit
